From PubChem BioAssay AID1918945 (Molecular Pharmacology Branch, DTP, NCI, 2023)

Test system: 883617-216-R-J1-PDC complex spheroid viability
Assay: Anticancer human tumor 883617-216-R-J1-PDC patient-derived bladder carcinoma cell line growth inhibition
Conditions: for IC50: curve of first compound; for viability, T/C: stronger effect = lower value
Procedure, shortened: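 Multicellular complex spheroids of tumor cells with human endothelial cells (HUVEC) and mesenchymal stem cells; the LSD1 inhibitor iadademstat was combined with standard-of-care or investigational agents. Top concentration at or near clinical Cmax, half-log dilutions; final DMSO ≤0.25%.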

[1] = second compound 0.1 µM, first compound 0.0316 µM
[2] = second compound 0.1 µM, first compound 0.1 µM
[3] = second compound 0.1 µM, first compound 0.316 µM
[4] = second compound 0.1 µM, first compound 1 µM
[5] = second compound 0.1 µM, first compound 3.16 µM
[6] = second compound 0.1 µM, first compound 10 µM
[7] = second compound 0.316 µM, first compound 0.0316 µM
[8] = second compound 0.316 µM, first compound 0.1 µM
[9] = second compound 0.316 µM, first compound 0.316 µM
[10] = second compound 0.316 µM, first compound 1 µM
[11] = second compound 0.316 µM, first compound 3.16 µM
[12] = second compound 0.316 µM, first compound 10 µM
[13] = second compound 1 µM, first compound 0.0316 µM
[14] = second compound 1 µM, first compound 0.1 µM
[15] = second compound 1 µM, first compound 0.316 µM
[16] = second compound 1 µM, first compound 1 µM
[17] = second compound 1 µM, first compound 3.16 µM
[18] = second compound 1 µM, first compound 10 µM
[19] = second compound 3.16 µM, first compound 0.0316 µM
[20] = second compound 3.16 µM, first compound 0.1 µM
[21] = second compound 3.16 µM, first compound 0.316 µM
[22] = second compound 3.16 µM, first compound 1 µM
[23] = second compound 3.16 µM, first compound 3.16 µM
[24] = second compound 3.16 µM, first compound 10 µM
[25] = second compound 10 µM, first compound 0.0316 µM
[26] = second compound 10 µM, first compound 0.1 µM
[27] = second compound 10 µM, first compound 0.316 µM
[28] = second compound 10 µM, first compound 1 µM
[29] = second compound 10 µM, first compound 3.16 µM
[30] = second compound 10 µM, first compound 10 µM
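Note: exposure lasted seven days after three days of spheroid growth.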
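Throughout, for viability, T/C: 100% = DMSO vehicle control luminescence.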

SMILES | IC50 (second compound 0.1 µM) | IC50 (second compound 0.316 µM) | IC50 (second compound 1 µM) | IC50 (second compound 3.16 µM) | IC50 (second compound 10 µM) | viability, T/C [1] | viability, T/C [2] | viability, T/C [3] | viability, T/C [4] | viability, T/C [7] | viability, T/C [8] | viability, T/C [9] | viability, T/C [10] | viability, T/C [13] | viability, T/C [14] | viability, T/C [15] | viability, T/C [16] | viability, T/C [19] | viability, T/C [20] | viability, T/C [21] | other results
CC(C)c1c(-c2ccccc2)nc2c(C#N)c[nH]n2c1=O + NC1CCC(NC2CC2c2ccccc2)CC1 | > 10000 nM | > 10000 nM | > 10000 nM | > 10000 nM | > 10000 nM | 106% | 102% | 101% | 103% | 107% | 109% | 108% | 105% | 97.3% | 91.8% | 101% | 95% | 104% | 99.7% | 97.8% | viability, T/C [5]: 97.5%; viability, T/C [6]: 93.8%; viability, T/C [11]: 103%; viability, T/C [12]: 95%; viability, T/C [17]: 93.6%; viability, T/C [18]: 86%; viability, T/C [22]: 98.2%; viability, T/C [23]: 91.2%; viability, T/C [24]: 89.9%; viability, T/C [25]: 103%; viability, T/C [26]: 106%; viability, T/C [27]: 112%; viability, T/C [28]: 98.2%; viability, T/C [29]: 95.2%; viability, T/C [30]: 86.1%
CC1COCCN1c1cc(-c2ccnn2C)c2ccnc(-c3ccn[nH]3)c2n1 (stereo not given) + NC1CCC(NC2CC2c2ccccc2)CC1 | 39.5 nM | 32.1 nM | 33.8 nM | 44.3 nM | 45.8 nM | 55.7% | 41.2% | 33.5% | 31.5% | 53.6% | 40.4% | 34% | 30.8% | 50.4% | 43.8% | 35.1% | 28.4% | 51.3% | 47.2% | 36.1% | viability, T/C (second compound 0.1 µM, first compound 0.00316 µM): 85%; viability, T/C (second compound 0.1 µM, first compound 0.01 µM): 62.2%; viability, T/C (second compound 0.316 µM, first compound 0.00316 µM): 89.8%; viability, T/C (second compound 0.316 µM, first compound 0.01 µM): 62%; viability, T/C (second compound 1 µM, first compound 0.00316 µM): 81.8%; viability, T/C (second compound 1 µM, first compound 0.01 µM): 60.2%; viability, T/C (second compound 3.16 µM, first compound 0.00316 µM): 76.3%; viability, T/C (second compound 3.16 µM, first compound 0.01 µM): 59%; viability, T/C [22]: 28.3%; viability, T/C (second compound 10 µM, first compound 0.00316 µM): 88.4%; viability, T/C (second compound 10 µM, first compound 0.01 µM): 66.7%; viability, T/C [25]: 52.7%; viability, T/C [26]: 45.5%; viability, T/C [27]: 32.1%; viability, T/C [28]: 25.5%
CC1COCCN1c1cc(C2(S(C)(=N)=O)CC2)nc(-c2ccnc3[nH]ccc23)n1 (stereo not given) + NC1CCC(NC2CC2c2ccccc2)CC1 | 1050 nM | 1130 nM | 1080 nM | 1350 nM | 1520 nM | 106% | 103% | 78.9% | 50.2% | 99.9% | 101% | 77.7% | 51.8% | 101% | 101% | 70.8% | 53.7% | 100% | 93% | 75.4% | viability, T/C [5]: 43.9%; viability, T/C [6]: 36.9%; viability, T/C [11]: 39.7%; viability, T/C [12]: 33%; viability, T/C [17]: 39%; viability, T/C [18]: 34.5%; viability, T/C [22]: 52.9%; viability, T/C [23]: 40.6%; viability, T/C [24]: 31.5%; viability, T/C [25]: 106%; viability, T/C [26]: 92.7%; viability, T/C [27]: 78.8%; viability, T/C [28]: 52%; viability, T/C [29]: 43.8%; viability, T/C [30]: 34.9%
